Laboratory results reported in publication PMC12114375, “Discovery of Hydrazineyl Amide Derivative of Pseudolaric Acid B for Reprogramming Tumor-Associated Macrophages Against Tumor Growth” (Molecules, 2025).

Key:
Raw264.7 cells = experiment: Cell viability (CCK-8) of RAW264.7 cells; assay type: cell-based, mouse; conditions: IL-4/IL-13 plus compound 10 μM, 12 h
Description: Cells were seeded in 96-well tissue culture plates. On the next day, cells were exposed to various concentrations of compounds and further cultured for the indicated period. Finally, cell proliferation was determined by using the Cell Counting Kit (CCK-8) (Dojindo, Kumamoto, Japan) assay.
Figure S2. Effects of natural pseudolaric acids 1-4, 6 and their O-pyranosides 5, 7 as well as the derivatives 8-18 o f 1 on Raw264.7 cell viability. Raw264.7 cells were treated with IL-4/IL-13 alone or combined with indicated compounds (10 μM) for 12 h. After incubation, the cell viability was determined using a cell counting kit (CCK-8, Dojindo, Japan) assay.
(1 picture or pasted object on this page, not shown here)

[1] = tested on: M2-like polarization of BMDMs (CD206, CD86); experiment: Macrophage phenotype analysis by flow cytometry (CD206, CD86) in BMDMs; assay type: cell-based, mouse; conditions: CSF-1-differentiated BMDMs, IL-4 and IL-13, 48 h, different concentrations
Description: We also extended the test to primary murine macrophages derived from bone marrow (BMDMs), which were cultured in vitro with recombinant mouse M-CSF for 6 days. The BMDMs were then stimulated with IL-4/IL-13, leading to their transformation into M2-like pro-tumoral macrophages. This transformation was characterized by an increase in both ARG1 and CD206 expression and a decrease in both NOS2 and MHC II expression. […] Subsequently, we assessed the capacity of compound 12 to inhibit the M2-like polarization of macrophages using CSF-1-differentiated mouse BMDMs. These cells were treated with IL-4 and IL-13 for 48 h, and the expression levels of CD206, an M2-type marker, and CD86, an M1-type marker, were analyzed via flow cytometry. […]
BMDMs were collected and stained with a fluorescent antibody or the matching isotype controls for 30 min at room temperature and then tested using a BD CytoFLEX LX (Beckman, CA, USA). […] Data were analyzed using FlowJo10.4 software.
Figure 2 Compound 12 inhibits the M2-like polarized phenotype of macrophages. […] The expression levels of the markers CD206 and CD86 on induced macrophages were determined by flow cytometry, and the mean fluorescence intensity (MFI) was analyzed with FlowJo (C), or the cells were lysed and immunoblotted to detect the indicated proteins (D). […]

Compound: COC(=O)C1=CC[C@@]23CC[C@@H]([C@@](C)(/C=C/C=C(\C)C(=O)NNCCO)OC2=O)[C@@]3(OC(C)=O)CC1 [compound 12, Methyl(3R,4S,4aS,9aR)-4a-acetoxy-3-((1E,3E)-5-(2-(2-hydroxyethyl)hydrazineyl)-4-methyl-5-oxopenta-1,3-dien-1-yl)-3-methyl-1-oxo-3,4,4a,5,6,9-hexahydro-1H-4,9a-ethanocyclohepta[c]pyran-7-carboxylate]
- cell viability (Raw264.7 cells): no significant diminution in cell viability
- CD86 expression (MFI, flow cytometry) [1]: increase in CD86 expression
- CD206 expression (MFI, flow cytometry) [1]: decrease in CD206 expression
